Experimental data published in article PMC11274883, “Anticancer Effect of Pt^[sequence], Pt^II5MESS, Pt^II56MESS and Their Platinum(IV)-Dihydroxy Derivatives against Triple-Negative Breast Cancer and Cisplatin-Resistant Colorectal Cancer” (Cancers, 2024).

Tests used:
HT29 cells [1] = experiment: TMRE mitochondrial membrane potential assay; format: cell-based; conditions: complexes at IC50, FCCP 20 µM
Method: (§1) Cells were then treated with an IC50 drug concentration for each complex. At 24, 48 or 72 h, DMEM was removed, and cells were washed with PBS. Then, cells were incubated with 1 µM tetramethylrhodamine, ethyl ester (TMRE) stain for 30 min. TMRE was then removed, and cells were washed twice with PBS (0.2% BSA), after which phenol red-free media was added. […] The cells were then stained with TMRE, as described above, and the resulting solution was scanned for fluorescence. Three independent experiments in triplicates were implemented.

MDA−MB−231 cells [2] = experiment: TMRE mitochondrial membrane potential assay; format: cell-based; conditions: complexes at IC50, FCCP 20 µM
Method: as §1

HT29 cells [3] = experiment: DCFDA cellular ROS detection assay; format: cell-based; conditions: complexes at IC50, TBHP 20 µM
Method: (§2) DCFDA/H2DCFDA-cellular ROS Assay Kit (Abcam, Cambridge, MA, USA) was used to investigate the production of ROS in treated cells, as previously described. MDA−MB−231 or HT29 cells were seeded at a total concentration of 2500 cells/well in 96-well plates and incubated overnight. DMEM was then removed, and cells washed with 1× kit buffer, and stained with 25 µM 2′,7′-dichlorofluorescein diacetate (DCFH-DA) for 45 min. […] After that, the plates were scanned using the Glo-Max®-Multimode microplate reader (Promega Corporation, Alexandra, VIC, Australia) at an excitation/emission of 485/535 nm to detect fluorescence (relative fluorescence units, or RFU) at various time points. A positive control was generated using 20 µM tert-butyl hydroperoxide (TBHP), and the same procedure was applied with DCFDA. Three independent experiments in triplicates were implemented.

MDA−MB−231 cells [4] = experiment: DCFDA cellular ROS detection assay; format: cell-based; conditions: complexes at IC50, TBHP 20 µM
Method: as §2

HT29 cells [5] = experiment: Label-free quantitative proteomics; format: cell-based, Homo Sapiens; conditions: HT29, IC50, 72 h; for number of downregulated differentially expressed proteins / number of upregulated differentially expressed proteins: p < 0.05, fold change > 2
Method: (§3) The supernatant was then collected into 15 mL tubes, then the cells were washed with PBS and trypsinised. The detached cells were transferred to allocated tubes and centrifuged at 500× g for 5 min at 4 °C. Cell pellet was washed twice with PBS and then resuspended in 300 µL cell lysis buffer (RIPA) for 30 min on ice. Cell extracts were then centrifuged at 12,000× g for 15 min at 4 °C, and the supernatants (containing the proteins) were collected into Lo-Bind Eppendorf. The Bio-Rad protein assay (Bio-Rad, Hercules, CA, USA) was used to assess protein content. For protein extraction and delipidation 100 µL of the cell homogenate was moved to 1.7 mL Lo-Bind Eppendorf tubes and 450 µL methanol was added to the mixture and vortexed. Chloroform (150 µL) was next added and vortexed. Then, water (450 µL) was added to the mixture, vortexed and centrifuged for 5 min at 12,000× g, which formed the protein pellet at the organic/aqueous interface. The layer of chloroform was removed and then 400 µL of methanol was added. The sample was then vortexed and centrifuged at 12,000× g for 15 min. The supernatant was then aspirated and discarded. The pellet was then washed with methanol (400 µL). The supernatant was removed, and the pellets were air-dried overnight. Next, steps were performed for reduction, alkylation, and tryptic digestion of the protein. 0.1% RapiGest (Waters, Milford, MA, USA) in 50 mM aqueous ammonium bicarbonate (20 µL) was added to the air-dried pellet and vortexed for effective suspension. The pellet should completely dissolve. Then, 50 µL of 7 mM DTT in 50 mM aqueous ammonium bicarbonate was added, to give a final concentration of 5 mM DTT. Samples were then heated for 30 min at 60 °C and cooled to room temperature. Iodoacetamide (45 mM) in 50 mM aqueous ammonium bicarbonate was next added to give a concentration of 15 mM. The mixture was allowed to react in the dark for 30 min. Then, 10 ng/µL of Trypsin Gold, Mass spectrometry grade (Promega, NSW, Australia) was added for digestion to occur at room temperature overnight. And 50 µL of 4% (v/v) aqueous trifluoroacetic acid was then added to each tube. Samples were next heated for 45 min at 37 °C to effect decomposition of RapiGest. Samples were then centrifuged at 12,000× g for 10 min at 4 °C. Supernatants were then transferred to total recovery vials and run on a nanoAcquity Ultra-Performance Liquid Chromatography (UPLC) coupled with a Synapt G2-Si instrument (Waters, MA, USA) was used for label-free quantitative protein profiling. Nano-proteomics method is detailed in Method S1. Three independent experiments in triplicates were implemented, while all samples were analysed in a single run with a single injection (1 µL) for each trial. Mass spectrometry (MS) data were processed using Progenesis QI for proteomics (version 4.1, Nonlinear Dynamics, Newcastle upon Tyne, UK), and aligned using UniProt Homo Sapiens reference database IDEP9.6 utilised to cluster and retrieve the initial signature analyses. […] Enrichment studies were performed using gene lists that corresponded to the identified proteins. Overrepresentation analysis was performed based on Gene Ontology (GO) Biological Processes, GO Cellular Components, and GO Molecular Functions using iDEP. Enrichment maps and STRING apps were used to construct pathways networks and explore protein–protein interactions.

MDA−MB−231 cells [6] = experiment: Label-free quantitative proteomics; format: cell-based, Homo Sapiens; conditions: MDA−MB−231, IC50, 72 h; for number of downregulated differentially expressed proteins / number of upregulated differentially expressed proteins: p < 0.05, fold change > 2
Method: as §3

| SMILES | MtMp (mitochondrial membrane potential) (HT29 cells [1]; HT29, 24 h) [RFU] | MtMp (mitochondrial membrane potential) (HT29 cells [1]; HT29, 48 h) [RFU] | MtMp (mitochondrial membrane potential) (HT29 cells [1]; HT29, 72 h) [RFU] | MtMp (mitochondrial membrane potential) (MDA−MB−231 cells [2]; MDA−MB−231, 24 h) [RFU] | MtMp (mitochondrial membrane potential) (MDA−MB−231 cells [2]; MDA−MB−231, 48 h) [RFU] | MtMp (mitochondrial membrane potential) (MDA−MB−231 cells [2]; MDA−MB−231, 72 h) [RFU] | ROS production (HT29 cells [3]; HT29, 24 h) [RFU] | ROS production (HT29 cells [3]; HT29, 48 h) [RFU] | ROS production (HT29 cells [3]; HT29, 72 h) [RFU] | ROS production (MDA−MB−231 cells [4]; MDA−MB−231, 24 h) [RFU] | ROS production (MDA−MB−231 cells [4]; MDA−MB−231, 48 h) [RFU] | ROS production (MDA−MB−231 cells [4]; MDA−MB−231, 72 h) [RFU] | DEPs exhibited by the treatment (UpSet plot) (HT29 cells [5]) | number of downregulated differentially expressed proteins (HT29 cells [5]) | number of upregulated differentially expressed proteins (HT29 cells [5]) | DEPs exhibited by the treatment (UpSet plot) (MDA−MB−231 cells [6]) | number of downregulated differentially expressed proteins (MDA−MB−231 cells [6]) | number of upregulated differentially expressed proteins (MDA−MB−231 cells [6]) | detected up and down differentially regulated proteins (HT29 cells [5]) |
| --- | --- | --- | --- | --- | --- | --- | --- | --- | --- | --- | --- | --- | --- | --- | --- | --- | --- | --- | --- |
| N.N.[Cl][Pt][Cl] [Cisplatin, cisplatin] | 270.02 | 237.68 | 188.59 | 208.24 | 177.91 | 154.83 | 205.39 | 285.11 | 316.55 | 279.82 | 325.96 | 369.97 |  |  |  |  |  |  |  |
| Cc1cc2cccnc2c2ncccc12.N[C@H]1CCCC[C@@H]1N.O=[N+]([O-])[O-].O=[N+]([O-])[O-].[Pt+2] [Pt^II5MESS, [Pt(5-methyl-1,10-phenanthroline)(1S,2S-diaminocyclohexane)](NO3)2] | 253.81 | 211.88 | 143.93 | 230.62 | 189.85 | 150.71 | 278.00 | 362.89 | 404.44 | 316.23 | 372.49 | 399.97 | 34 | 118 | 110 | 22 | 75 | 91 |  |
| Cc1c(C)c2cccnc2c2ncccc12.N[C@H]1CCCC[C@@H]1N.O=[N+]([O-])[O-].O=[N+]([O-])[O-].[Pt+2] [Pt^II56MESS, [Pt(5,6-dimethyl-1,10-phenanthroline)(1S,2S-diaminocyclohexane)](NO3)2] | 159.93 | 151.44 | 102.76 | 155.45 | 131.53 | 86.51 | 321.56 | 433.67 | 453.89 | 338.49 | 418.08 | 446.09 | 225 | 228 | 200 | 165 | 183 | 132 |  |
| Cc1cc2cccnc2c2ncccc12.N[C@H]1CCCC[C@@H]1N.O=[N+]([O-])[O-].O=[N+]([O-])[O-].[OH][Pt+2][OH] [Pt^IV5MESS(OH)2, [Pt(5-methyl-1,10-phenanthroline)(1S,2S-diaminocyclohexane)(dihydroxy)](NO3)2] | 304.45 | 224.23 | 198.24 | 250.80 | 201.07 | 155.85 | 234.55 | 278.33 | 296.67 | 245.26 | 264.00 | 314.78 |  |  |  |  | 33 | 38 | 3 |
| Cc1c(C)c2cccnc2c2ncccc12.N[C@H]1CCCC[C@@H]1N.O=[N+]([O-])[O-].O=[N+]([O-])[O-].[OH][Pt+2][OH] [Pt^IV56MESS(OH)2, [Pt(5,6-dimethyl-1,10-phenanthroline)(1S,2S-diaminocyclohexane)(dihydroxy)](NO3)2] | 258.69 | 172.39 | 124.84 | 190.39 | 156.37 | 92.94 | 244 | 318.56 | 368.11 | 292.21 | 360.12 | 386.28 |  |  |  |  | 3 | 8 | 3 |
| N[C@H]1CCCC[C@@H]1N.O=[N+]([O-])[O-].O=[N+]([O-])[O-].[OH-].[OH-].[Pt+4].c1cnc2c(c1)ccc1cccnc12 [[Pt(1,10-phenanthroline)(1S,2S-diaminocyclohexane)(dihydroxy)](NO3)2] | 312.19 | 261.95 | 215.58 | 297.56 | 257.95 | 179.38 | 182.77 | 217.33 | 242.44 | 196.62 | 256.83 | 275.09 |  |  |  |  | 5 | 9 | no detected differentials |
